Four sequences from patent US20180133327A1, “Cell Penetrating Peptides and Complexes Comprising the Same” (Amal Therapeutics SA, priority 2015, published 2018) can be followed below.

The subject of experiment [1] is IFN-γ-producing OVA257-264-specific CD8 T cells. As to the kind of experiment: Vaccination with ZEBRA CPP truncation constructs plus TLR agonist adjuvant, IFN-γ Elispot on spleen cells, CD8. Type of experiment: in vivo, mice. How it is done: (§1) Mice were vaccinated three times (wk0, wk2 and wk9) by s.c. injection (right flank) of 10 nmoles of OVACD8CD4 (the cargo without Zebra CPP truncation), Z13OVACD8CD4, Z14OVACD8CD4, Z15OVACD8CD4, Z18OVACD8CD4 and i.m. injection of 50 μg of Hiltonol (right hind leg). One week after the last vaccination, Elispot assay was performed on spleen cells for detecting IFN-y-producing OVA257-264-specific CD8 T cells (A) and OVA323-339-specific CD4 T cells (B). *, p<0.05; **, p<0.01.
(§2) Mice were vaccinated three times (wk0, wk2 and wk9) by s.c. injection (right flank) of 10 nmoles of OVACD8CD4 (the cargo without Zebra CPP truncation), Z13OVACD8CD4, Z14OVACD8CD4, Z15OVACD8CD4 or Z18OVACD8CD4 and 20 μg of Pam3CSK4. One week after the last vaccination, Elispot assay was performed on spleen cells for detecting IFN-γ-producing OVA257-264-specific CD8 T cells (A) and OVA323-339-specific CD4 T cells (B). *, p<0.05; **, p<0.01.
Mice were vaccinated three times (wk0, wk2 and wk9) by s.c. injection (right flank) of 10 nmoles of Z13OVACD8CD4, Z15OVACD8CD4 or Z18OVACD8CD4 and 20 μg of MPLA. One week after the last vaccination, Elispot assay was performed on spleen cells for detecting IFN-γ-producing OVA257-264-specific CD8 T cells (A) and OVA323-339-specific CD4 T cells (B). *, p<0.05; **, p<0.01.
To extend the previous findings to in vivo vaccination, Z13, Z14, Z15 and Z18 conjugated to antigenic cargo containing both CD8 and CD4 T cell epitopes from OVA (as described in Example 4 for Z13, Z15 and Z18) was synthesized. For Z14 the construct was as follows:
(§3) Firstly, those constructs were tested with Hiltonol adjuvant (a TLR3 agonist). […] The number of peptide-specific IFN-γ-producing cells was calculated by subtracting the number of IFN-γ-secreting cells cultured without peptide to that obtained with cells cultured with peptide. […]

Another experiment has as its system EG7-OVA tumor cells. As to the kind of experiment: Therapeutic effect of ZEBRA CPP truncation-based vaccines in the EG.7-OVA s.c. model. Particulars: 10 nmol ZxxOVACD8CD4 and 20 μg MPLA s.c. at d5, d13 and d21 after tumor implantation. It is filed as in vivo, C57BL/6 mice. On the procedure:
C57BL/6 mice were implanted s.c. with 3×10^5 EG7-OVA tumor cells in the left flank and vaccinated three times (d5, d13 and d21) by s.c. injection of 10nmoles of Z-truncOVACD8CD4 peptides and 20 μg of MPLA in the right flank. Tumor size was measured with a caliper. […] B, D and F: survival curve of 7 mice per group. Median survival is indicated on the graph (m.s.). *, p<0.05; **, p<0.01; ***, p<0.001; ****, p<0.0001 (Log-Rang test).
To investigate the effects of different ZEBRA CPP truncation-based vaccines on tumor growth and survival, the effects of the constructs Z13OVACD8CD4, Z14OVACD8CD4, Z15OVACD8CD4 and Z18OVACD8CD4 (as described in Examples 4 and 6) were investigated in the EG.7-OVA s.c. model. On d0, C57BL/6 mice were implanted s.c. with 3×10^5 EG7-OVA tumor cells in the left flank and assigned to five different groups (control, Z13OVACD8CD4, Z14OVACD8CD4, Z15OVACD8CD4 and Z18OVACD8CD4). Mice were vaccinated three times (namely, at d5, d13 and d21 after tumor implantation) by s.c. injection of either 10 nmol of Z13OVACD8CD4, Z14OVACD8CD4, Z15OVACD8CD4 or Z18OVACD8CD4 and 20μg of MPLA in the right flank. Tumor size was measured with a caliper.

The subject of experiment [2] is IFN-γ-producing OVA323-339-specific CD4 T cells. As to the kind of experiment: Vaccination with ZEBRA CPP truncation constructs plus TLR agonist adjuvant, IFN-γ Elispot on spleen cells, CD4. It is filed as in vivo, mice. How it is done:
as §1, §2
Mice were vaccinated three times (wk0, wk2 and wk9) by s.c. injection (right flank) of 10 nmoles of Z13OVACD8CD4, Z15OVACD8CD4 or Z18OVACD8CD4 and 20 μg of MPLA. […]
as §3

[3] abbreviates: 10 nmol ZxxOVACD8CD4 s.c. wk0, wk2, wk9 and 20 μg MPLA (TLR4 agonist).
Where [4] appears, read: 10 nmol ZxxOVACD8CD4 s.c. wk0, wk2, wk9 and 20 μg Pam3CSK4 (TLR2 agonist).

Turning to “KRYKNRVASRKSRAKFK (CPP Z15) [ZEBRA CPP truncation]”, the “CD8 T cell immune responses, for any adjuvant” value in experiment [1] (10 nmol ZxxOVACD8CD4 s.c. wk0, wk2, wk9, Hiltonol, Pam3CSK4 or MPLA) is listed as “low CD8 T cell immune responses”. Besides, in the experiment with EG7-OVA tumor cells, the survival time result is “only slight” and the tumor volume entry is given as “only slight”.
Consider “KRYKNRVASRKSRAKFKQLLQHYREVAAAKSSENDRLRLLLK [Z13]”, for which, in experiment [1] (setting [3]), the “CD8 immune response, combined with MPLA” value is “most efficacious”. Also, the “CD4 immune response, combined with MPLA” value in experiment [2] (setting [3]) is “most efficacious”. Also, in the experiment on EG7-OVA tumor cells, the survival time result was “much more pronounced and highly significant”; the tumor volume entry is “much more pronounced and highly significant”.
For KRYKNRVASRKSRAKFKQLLQHYREVAAAK [Z14], in the experiment with EG7-OVA tumor cells, the survival time result was “much more pronounced and highly significant”; the tumor volume entry was “much more pronounced and highly significant”.
Turning to REVAAAKSSENDRLRLLLK [Z18], the “CD8 immune response, combined with Pam3CSK4” value in experiment [1] (setting [4]) was “highest CD8 and CD4 immune response”. For the same sequence, the “CD4 immune response, combined with Pam3CSK4” value in experiment [2] (setting [4]) is “highest CD8 and CD4 immune response”. In the experiment with EG7-OVA tumor cells, the survival time entry is given as “only slight” and the tumor volume result was “only slight”.
